Active and inactive are the calls of the source. No cut-off for these calls is given here.
Tests used:
Rattus norvegicus [1] = assay: Antiinflammatory activity in albino rat assessed as protection against carrageenan-induced paw edema at 50 mg/kg, po administered 1 hr before carrageenan challenge measured after 4 hrs; format: functional
Rattus norvegicus [2] = assay: Antiinflammatory activity in albino rat assessed as protection against carrageenan-induced paw edema at 25 mg/kg, po administered 1 hr before carrageenan challenge measured after 4 hrs; format: functional
Mus musculus [3] = assay: Anticonvulsant activity in Webster mouse assessed as protection against yohimbine-HCl-induced clonic seizure at 5 mg/kg, ip administered 30 mins before yohimbine-HCl challenge relative to carbamazepine; format: functional
Mus musculus [4] = assay: Analgesic activity in Webster mouse assessed as normal reaction time at 5 mg/kg, sc after 10-120 mins by hot plate assay relative to valdecoxib; format: functional; conditions: route subcutaneous
Mus musculus [5] = assay: Anticonvulsant activity in Webster mouse assessed as protection against yohimbine-HCl-induced clonic seizure at 5 mg/kg, ip administered 30 mins before yohimbine-HCl challenge; format: functional
Rattus norvegicus [6] = assay: Antiinflammatory activity in albino rat assessed as inhibition of increase in plasma PGE2 level at 25 mg/kg, po by EIA; format: functional
[7] = Acute toxicity in rat; format: organism-based; conditions: in vivo
Rattus norvegicus [8] = assay: Antiinflammatory activity in albino rat assessed as inhibition of increase in plasma PGE2 level at 50 mg/kg, po by EIA; format: functional

| SMILES | Activity (Rattus norvegicus [1]) [%] | Activity (Rattus norvegicus [2]) [%] | Activity (Mus musculus [3]; route intraperitoneal) | Activity (Mus musculus [4]) [%] | ED50 (Mus musculus [5]; route intraperitoneal) [mg/kg] | inhibition in vivo at 25 mg/kg (Rattus norvegicus [6]) [%] | LD50 [7] [mg/kg] | Activity (Mus musculus [3]) | ED50 (Mus musculus [5]) | inhibition in vivo at 50 mg/kg (Rattus norvegicus [8]) [%] |
| --- | --- | --- | --- | --- | --- | --- | --- | --- | --- | --- |
| CC1=CC(c2ccccc2)NC(=S)N1CN1CCOCC1 (stereo not given) | 98.41 | 85.84 | 2.3 | 60 | 13 | 90.3 | 1.69 |  |  |  |
| CC1=CC(c2ccccc2)N=C(NN2C(=O)c3cccc4cccc(c34)C2=O)N1 (stereo not given) | 93.15 | 87.8 |  | 60 |  | 88.7 | 1.85 | inactive | inactive | 95.6 |
| CC1=CC(c2ccccc2)Nc2n[nH]c(=S)n21 (stereo not given) | 42.38 |  |  |  |  |  | 1.8 | inactive | inactive | 66.8 |
| CC1=Cc2c(c(=O)[nH]n2-c2ccccc2)C(c2ccccc2)C1 (stereo not given) | 64.8 | 63.9 |  | 60 |  | 54.9 | 1.86 | inactive | inactive | 67 |
| CC1=CC2=NC(=S)NC(=O)C2C(c2ccccc2)C1 (stereo not given) | 85.24 | 74.38 | 2.04 | 130 | 15 | 72.1 | 1.88 |  |  | 82.8 |
| CCOC(=O)C1C(=O)C=C(C)CC1c1ccccc1 (stereo not given) | 60.26 |  | 0.68 | 60 | 50 |  | 1.74 |  |  | 54.5 |
| CC1=CC(c2ccccc2)NC(NN)N1 (stereo not given) |  |  |  |  |  |  | 1.88 |  |  |  |
| CC1=CC(c2ccccc2)N=C(Nn2c(=O)c3cc4c(=O)n(NC5=NC(c6ccccc6)C=C(C)N5)c(=O)c4cc3c2=O)N1 (stereo not given) |  |  |  |  |  |  | 1.68 |  |  |  |
| NC(=O)N1c2ccccc2C=Cc2ccccc21 [CARBAMAZEPINE] |  |  |  |  | 28 |  |  |  |  |  |
| CC1=Cc2c(c(C)nn2-c2ccccc2)C(c2ccccc2)C1 (stereo not given) |  |  |  |  |  |  | 1.92 |  |  |  |
| CC1=Cc2[nH]c(=S)nc(C)c2C(c2ccccc2)C1 (stereo not given) |  |  |  | 60 |  |  | 1.87 |  |  |  |
| CC1=CC(c2ccccc2)N=C(NN2C(=O)c3ccc4c5c(ccc(c35)C2=O)C(=O)N(NC2=NC(c3ccccc3)C=C(C)N2)C4=O)N1 (stereo not given) | 51.6 | 48.5 | 1.8 | 60 | 15 | 58.8 | 1.78 |  |  | 65 |
| CC1=CC(c2ccccc2)NC(=S)N1 (stereo not given) | 96.1 | 84.52 | 1 | 130 | 32 | 78.4 | 1.8 |  |  | 93.5 |
| CC1=CC(c2ccccc2)Nc2ncnn21 (stereo not given) | 96.05 | 85.25 | 2.51 | 60 | 10 | 80.7 | 1.75 |  |  | 94.6 |
| CC1=CC(c2ccccc2)Nc2nnc(C)n21 (stereo not given) |  |  |  |  |  |  | 1.97 |  |  |  |
| CC1=CC(c2ccccc2)N=C(n2cc(C)c(C)n2)N1 (stereo not given) |  |  |  |  |  |  | 1.79 |  |  |  |
| C[C@]12C=CC(=O)C=C1CC[C@@H]1[C@@H]2[C@@H](O)C[C@@]2(C)[C@H]1CC[C@]2(O)C(=O)CO [PREDNISOLONE] | 92 | 81 |  |  |  | 77 | 1.62 |  |  | 91 |
| CC(=O)C1C(=O)C=C(C)CC1c1ccccc1 (stereo not given) |  |  |  |  |  |  | 1.72 |  |  |  |
